According to ChEMBL document CHEMBL5653631, “A Potent and Selective ULK1 Inhibitor Suppresses Autophagy and Sensitizes Cancer Cells to Nutrient Stress” (iScience, 2018):

Key:
[1] = biological target: Glycogen synthase kinase-3 beta (Homo sapiens) (UniProt P49841); experiment: Inhibition of human recombinant GSK3B at 40 nM in presence of ATP by radiometric assay relative to control
[2] = biological target: Epithelial discoidin domain-containing receptor 1 (Homo sapiens) (UniProt Q08345); experiment: Inhibition of human recombinant DDR1 at 40 nM in presence of ATP by radiometric assay relative to control
Sequence of Epithelial discoidin domain-containing receptor 1 (Homo sapiens) (Q08345 whole entry, the tested form may be a part): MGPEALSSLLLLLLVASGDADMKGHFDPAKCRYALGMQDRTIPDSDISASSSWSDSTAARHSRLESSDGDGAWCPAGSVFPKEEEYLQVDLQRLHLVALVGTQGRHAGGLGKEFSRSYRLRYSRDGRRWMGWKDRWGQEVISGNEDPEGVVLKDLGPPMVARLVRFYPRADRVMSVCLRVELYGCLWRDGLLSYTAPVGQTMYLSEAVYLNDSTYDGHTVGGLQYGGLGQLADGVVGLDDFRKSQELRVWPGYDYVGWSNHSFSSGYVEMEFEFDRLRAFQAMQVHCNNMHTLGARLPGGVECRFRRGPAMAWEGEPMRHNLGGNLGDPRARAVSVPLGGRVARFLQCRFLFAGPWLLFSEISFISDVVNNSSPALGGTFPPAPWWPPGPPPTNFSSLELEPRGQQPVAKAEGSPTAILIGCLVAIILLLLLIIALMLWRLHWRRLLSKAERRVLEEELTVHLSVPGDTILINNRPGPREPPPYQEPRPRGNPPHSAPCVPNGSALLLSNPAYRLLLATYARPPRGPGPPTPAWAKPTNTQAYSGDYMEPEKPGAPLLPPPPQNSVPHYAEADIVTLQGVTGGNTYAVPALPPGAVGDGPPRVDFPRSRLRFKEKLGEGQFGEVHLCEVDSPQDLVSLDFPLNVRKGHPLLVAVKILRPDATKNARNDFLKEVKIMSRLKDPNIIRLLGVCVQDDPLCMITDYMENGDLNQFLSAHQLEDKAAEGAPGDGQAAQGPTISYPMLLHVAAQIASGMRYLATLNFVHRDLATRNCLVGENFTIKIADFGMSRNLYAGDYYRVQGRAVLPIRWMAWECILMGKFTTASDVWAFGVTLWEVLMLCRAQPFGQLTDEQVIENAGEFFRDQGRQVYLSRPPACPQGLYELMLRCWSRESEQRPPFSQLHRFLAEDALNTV

[3] = biological target: High affinity nerve growth factor receptor (Homo sapiens) (UniProt P04629); experiment: Inhibition of human recombinant TRKA at 40 nM related to control ULK1
Sequence of High affinity nerve growth factor receptor (Homo sapiens) (P04629 33-796 limits assumed): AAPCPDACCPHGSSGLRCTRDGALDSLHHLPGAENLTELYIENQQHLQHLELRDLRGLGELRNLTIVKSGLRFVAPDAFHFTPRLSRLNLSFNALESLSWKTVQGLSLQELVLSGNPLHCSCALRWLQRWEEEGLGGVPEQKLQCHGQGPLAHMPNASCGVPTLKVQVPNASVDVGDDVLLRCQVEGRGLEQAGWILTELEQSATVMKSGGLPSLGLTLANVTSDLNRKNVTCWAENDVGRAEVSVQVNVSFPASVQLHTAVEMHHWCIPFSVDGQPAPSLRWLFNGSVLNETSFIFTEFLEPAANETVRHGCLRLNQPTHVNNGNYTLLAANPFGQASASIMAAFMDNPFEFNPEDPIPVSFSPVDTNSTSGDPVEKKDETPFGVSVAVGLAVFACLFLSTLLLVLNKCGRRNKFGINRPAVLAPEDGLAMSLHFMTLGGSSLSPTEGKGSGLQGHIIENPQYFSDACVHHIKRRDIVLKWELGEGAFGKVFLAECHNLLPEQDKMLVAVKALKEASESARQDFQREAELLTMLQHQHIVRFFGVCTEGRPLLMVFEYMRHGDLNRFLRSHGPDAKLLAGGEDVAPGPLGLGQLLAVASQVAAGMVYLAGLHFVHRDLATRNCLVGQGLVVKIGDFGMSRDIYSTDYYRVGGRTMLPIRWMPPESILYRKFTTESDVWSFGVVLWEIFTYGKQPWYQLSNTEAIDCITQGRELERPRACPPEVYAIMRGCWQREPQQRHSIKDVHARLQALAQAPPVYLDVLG

[4] = biological target: Tyrosine-protein kinase Yes (Homo sapiens) (UniProt P07947); experiment: Inhibition of human recombinant YES at 40 nM related to control ULK1
Sequence of Tyrosine-protein kinase Yes (Homo sapiens) (P07947 2-543 limits assumed): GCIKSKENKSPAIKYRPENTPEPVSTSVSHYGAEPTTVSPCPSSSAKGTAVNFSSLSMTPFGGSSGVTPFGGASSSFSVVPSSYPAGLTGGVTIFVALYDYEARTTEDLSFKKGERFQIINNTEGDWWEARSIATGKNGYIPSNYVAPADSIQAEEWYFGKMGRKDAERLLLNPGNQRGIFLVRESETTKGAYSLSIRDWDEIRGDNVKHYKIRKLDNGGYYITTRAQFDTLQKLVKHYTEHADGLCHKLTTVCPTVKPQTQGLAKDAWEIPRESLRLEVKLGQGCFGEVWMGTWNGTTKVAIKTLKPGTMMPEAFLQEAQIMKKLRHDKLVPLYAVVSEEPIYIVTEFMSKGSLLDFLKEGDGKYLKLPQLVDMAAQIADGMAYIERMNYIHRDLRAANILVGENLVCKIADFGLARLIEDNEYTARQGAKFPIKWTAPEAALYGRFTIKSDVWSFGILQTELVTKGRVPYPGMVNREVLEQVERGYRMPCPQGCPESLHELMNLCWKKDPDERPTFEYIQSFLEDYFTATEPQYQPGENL

[5] = biological target: Tyrosine-protein kinase Tec (Homo sapiens) (UniProt P42680); experiment: Inhibition of human recombinant TEC at 15 nM related to control ULK1
Sequence of Tyrosine-protein kinase Tec (Homo sapiens) (P42680 whole entry, looked up): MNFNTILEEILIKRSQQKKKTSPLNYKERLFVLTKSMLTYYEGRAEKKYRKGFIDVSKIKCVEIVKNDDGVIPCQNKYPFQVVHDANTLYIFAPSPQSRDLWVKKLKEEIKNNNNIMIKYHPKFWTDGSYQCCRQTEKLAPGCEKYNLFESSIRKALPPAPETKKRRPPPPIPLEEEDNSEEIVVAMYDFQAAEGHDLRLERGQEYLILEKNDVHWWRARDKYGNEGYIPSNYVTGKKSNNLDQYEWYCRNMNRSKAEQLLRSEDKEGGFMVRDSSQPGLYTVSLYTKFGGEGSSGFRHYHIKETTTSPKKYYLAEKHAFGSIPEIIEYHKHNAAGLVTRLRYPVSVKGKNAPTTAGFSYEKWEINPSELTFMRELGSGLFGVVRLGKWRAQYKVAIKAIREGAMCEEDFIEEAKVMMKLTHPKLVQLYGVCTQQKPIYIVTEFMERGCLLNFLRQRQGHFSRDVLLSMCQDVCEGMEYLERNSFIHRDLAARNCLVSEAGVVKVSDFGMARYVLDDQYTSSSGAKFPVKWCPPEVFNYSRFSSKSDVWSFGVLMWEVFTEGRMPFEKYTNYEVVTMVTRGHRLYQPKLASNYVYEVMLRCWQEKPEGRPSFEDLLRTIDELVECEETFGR

[6] = biological target: T1, MAP/microtubule affinity-regulating kinase 4 (Homo sapiens) (UniProt Q96L34); experiment: Inhibition of human recombinant MARK4 at 500 nM in presence of ATP by radiometric assay relative to control
T1 sequence (whole entry): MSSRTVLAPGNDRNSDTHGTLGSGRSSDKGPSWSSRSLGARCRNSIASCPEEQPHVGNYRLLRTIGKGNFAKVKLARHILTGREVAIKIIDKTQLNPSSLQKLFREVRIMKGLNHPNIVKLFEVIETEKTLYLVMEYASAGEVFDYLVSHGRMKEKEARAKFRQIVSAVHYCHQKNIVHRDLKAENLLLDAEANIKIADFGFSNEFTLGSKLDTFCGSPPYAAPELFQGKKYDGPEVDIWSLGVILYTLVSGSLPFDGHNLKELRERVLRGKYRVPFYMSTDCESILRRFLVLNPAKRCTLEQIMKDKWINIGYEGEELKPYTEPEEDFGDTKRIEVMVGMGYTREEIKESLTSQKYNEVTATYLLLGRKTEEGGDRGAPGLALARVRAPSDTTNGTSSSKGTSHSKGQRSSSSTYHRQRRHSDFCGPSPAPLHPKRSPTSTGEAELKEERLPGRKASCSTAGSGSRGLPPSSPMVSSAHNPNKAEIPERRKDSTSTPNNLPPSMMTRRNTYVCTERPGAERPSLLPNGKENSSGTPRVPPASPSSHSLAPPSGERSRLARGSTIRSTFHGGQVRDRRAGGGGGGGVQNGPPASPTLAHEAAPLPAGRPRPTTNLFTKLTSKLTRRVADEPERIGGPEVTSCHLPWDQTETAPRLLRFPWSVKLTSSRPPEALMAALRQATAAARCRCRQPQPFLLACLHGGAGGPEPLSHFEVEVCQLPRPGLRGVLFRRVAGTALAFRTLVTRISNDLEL

[7] = biological target: MAP kinase-activated protein kinase 3 (Homo sapiens) (UniProt Q16644); experiment: Inhibition of human recombinant MAPKAPK3 at 500 nM in presence of ATP by radiometric assay relative to control
Sequence of MAP kinase-activated protein kinase 3 (Homo sapiens) (Q16644 whole entry, looked up): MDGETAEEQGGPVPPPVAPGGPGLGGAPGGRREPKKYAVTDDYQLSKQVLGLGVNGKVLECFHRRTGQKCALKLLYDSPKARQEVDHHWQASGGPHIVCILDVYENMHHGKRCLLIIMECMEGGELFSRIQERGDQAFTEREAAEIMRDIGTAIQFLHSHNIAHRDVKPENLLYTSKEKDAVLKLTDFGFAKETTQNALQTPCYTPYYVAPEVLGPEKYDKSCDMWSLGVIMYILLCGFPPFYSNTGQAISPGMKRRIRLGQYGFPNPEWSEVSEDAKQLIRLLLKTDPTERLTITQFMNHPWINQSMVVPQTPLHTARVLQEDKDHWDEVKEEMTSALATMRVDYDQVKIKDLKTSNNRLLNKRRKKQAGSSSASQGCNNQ

[8] = biological target: T2, Serine/threonine-protein kinase D3 (Homo sapiens) (UniProt O94806); experiment: Inhibition of human recombinant PKD3 at 500 nM in presence of ATP by radiometric assay relative to control
T2 sequence (whole entry): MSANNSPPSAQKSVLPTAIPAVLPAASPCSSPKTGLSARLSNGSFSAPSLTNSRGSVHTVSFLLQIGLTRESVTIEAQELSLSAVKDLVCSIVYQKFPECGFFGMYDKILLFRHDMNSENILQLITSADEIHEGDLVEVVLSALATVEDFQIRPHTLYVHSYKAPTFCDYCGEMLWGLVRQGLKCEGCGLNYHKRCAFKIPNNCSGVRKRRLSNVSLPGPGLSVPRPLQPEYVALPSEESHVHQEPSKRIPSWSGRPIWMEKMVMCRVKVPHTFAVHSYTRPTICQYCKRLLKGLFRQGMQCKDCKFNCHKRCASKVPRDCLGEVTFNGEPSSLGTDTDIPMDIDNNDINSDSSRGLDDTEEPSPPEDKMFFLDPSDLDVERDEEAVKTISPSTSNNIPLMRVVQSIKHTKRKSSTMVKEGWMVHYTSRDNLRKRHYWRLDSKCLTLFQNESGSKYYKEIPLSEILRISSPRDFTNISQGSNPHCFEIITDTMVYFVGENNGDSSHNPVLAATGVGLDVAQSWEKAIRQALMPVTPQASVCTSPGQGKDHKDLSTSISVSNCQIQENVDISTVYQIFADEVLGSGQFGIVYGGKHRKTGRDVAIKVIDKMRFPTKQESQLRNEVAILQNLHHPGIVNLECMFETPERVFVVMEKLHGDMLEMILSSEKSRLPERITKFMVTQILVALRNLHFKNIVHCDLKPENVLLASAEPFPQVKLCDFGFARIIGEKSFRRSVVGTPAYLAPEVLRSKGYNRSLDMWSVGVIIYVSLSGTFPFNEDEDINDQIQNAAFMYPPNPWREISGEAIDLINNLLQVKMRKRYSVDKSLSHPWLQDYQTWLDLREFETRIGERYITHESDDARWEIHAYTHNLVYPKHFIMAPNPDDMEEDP

[9] = biological target: T3, Serine/threonine-protein kinase Sgk3 (Homo sapiens) (UniProt Q96BR1); experiment: Inhibition of human recombinant SGK3 at 500 nM in presence of ATP by radiometric assay relative to control
T3 sequence (whole entry): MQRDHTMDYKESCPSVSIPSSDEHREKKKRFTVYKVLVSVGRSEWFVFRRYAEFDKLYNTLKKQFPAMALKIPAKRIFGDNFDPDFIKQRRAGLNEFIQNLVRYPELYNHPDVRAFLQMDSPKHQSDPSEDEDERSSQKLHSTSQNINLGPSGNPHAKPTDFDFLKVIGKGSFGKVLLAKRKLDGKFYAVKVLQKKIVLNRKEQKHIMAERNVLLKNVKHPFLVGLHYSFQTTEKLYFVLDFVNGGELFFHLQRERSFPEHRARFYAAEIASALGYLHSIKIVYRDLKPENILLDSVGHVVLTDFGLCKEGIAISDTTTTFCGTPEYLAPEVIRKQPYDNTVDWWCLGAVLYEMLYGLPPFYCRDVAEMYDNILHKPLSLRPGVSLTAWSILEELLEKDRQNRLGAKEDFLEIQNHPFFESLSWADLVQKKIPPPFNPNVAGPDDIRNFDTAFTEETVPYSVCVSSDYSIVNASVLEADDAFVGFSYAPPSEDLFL

Sequence of Glycogen synthase kinase-3 beta (Homo sapiens) (P49841 whole entry, looked up, the tested form may be a part): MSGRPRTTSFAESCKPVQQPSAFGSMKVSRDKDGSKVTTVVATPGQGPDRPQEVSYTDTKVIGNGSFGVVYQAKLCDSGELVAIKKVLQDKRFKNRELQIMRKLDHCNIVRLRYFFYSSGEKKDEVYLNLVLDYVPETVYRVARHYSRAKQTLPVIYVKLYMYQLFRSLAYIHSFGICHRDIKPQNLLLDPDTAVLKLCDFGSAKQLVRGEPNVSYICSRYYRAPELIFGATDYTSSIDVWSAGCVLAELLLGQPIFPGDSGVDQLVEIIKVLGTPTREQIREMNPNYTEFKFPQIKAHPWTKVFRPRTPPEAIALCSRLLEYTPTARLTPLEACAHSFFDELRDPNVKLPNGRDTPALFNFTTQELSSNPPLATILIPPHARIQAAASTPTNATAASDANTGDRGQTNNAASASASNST

O=C(N[C@@H](C1CC1)C(F)(F)F)c1cc(-c2cnn3cc(-c4ccc(F)cc4)cnc23)cs1
inhibition [1]: 0%
inhibition [2]: 18%
fold change (FC) [3]: 0
fold change (FC) [4]: 0.32

CC(C)[C@H](NC(=O)c1cc(-c2cnn3cc(-c4ccc(OCCN5CCCCC5)cc4)cnc23)cs1)C(F)(F)F
fold change (FC) [5]: 0

CNC(=O)c1ccccc1Oc1nc(Nc2cc(OC)c(OC)c(OC)c2)ncc1Br
inhibition [6]: 58%
inhibition [7]: 0%
inhibition [8]: 0%
inhibition [9]: 1%
